The record followed here is US11597739B2, “Enhancing CD8+ T cells for adoptive T cell therapy by inhibiting PTPN1 (PTP1B) and PTPN2 (TC-PTP)” (The Royal Institution for the Advancement of …, priority 2017, dated 2023).

This assay deals with mouse CD8 T cells differentiated into Tcm cells. The experiment in a line: Exhaustion and effector markers after CTL re-stimulation (flow cytometry). Format: cell-based. As to conditions: second stimulation with anti-CD3, anti-CD28 and IL-2 for 5 days. The text has this: FIG. 8 illustrates that pharmacological inhibition of PTPN1/2 reduces expression of exhaustion markers and increases effector-molecule expression after CTL re-stimulation. Flow cytometric analysis of CD8 T cells differentiated into Tcm cells after 5 days of a second stimulation with anti-CD3 and anti-CD28 in presence or absence of K884. Histograms show the expression of exhaustion markers PD-1, CTLA-4, KLRG1 and LAG-3, and granzyme B and IFN-γ as markers of effector CTLs. Cells are gated on live/CD8+/CD62L^high.
2 μg/ml of 145-2C11 Hamster anti-Mouse CD3e in 300 μl of PBS are plated in 24 flat bottom well non-TC treated plates. Incubate O/N at 4° C. CD8 T cells from spleens of 8-12 weeks old OT-1 transgenic mice are isolated. 4×10^5 cells/ml are counted and resuspended in complete RPMI (RPMI+10% FBS heat inactivated at 55° C. for 45 min+Pen/Strep+55 μM β-Mercaptoethanol). The following 2× solutions are prepared:
0.5 ml of 2× solution is added to the corresponding wells. Incubate for 4-8 days. Every 2 days add inhibitor to the corresponding concentration. When the cells are confluent, expand to 6 cm tissue culture plates adding 4 ml of complete RPMI+20 U/ml of IL-2 and in b add 10 μM K884.
Calculate the specific cell lysis as follows: Specific cell lysis=((Sample−BF)/(AF−BF))×100 10) Flow Cytometry 1. Cell Activation • a. Wash cells with 1 ml of culture medium; • b. Centrifuge cells for 5 min at 300 g; • c. Resuspend cells in culture medium; • d. Prepare 2× solutions (negative control with only culture medium, Positive condition with 50 ng/mL of PMA and 500 ng/mL of lonomycin); • e. Plate 100 μL of cell suspension in 96 well plates (U-bottom); • f. Add 100 μL of 2× solutions in appropriate wells; • g. Incubate 4 hours at 37 C, 5% CO2. 2. Extracellular Staining • a. Record cell quantity transfers per tube; • b. Wash cells with 1 mL of PBS+2% FBS; • c. Centrifuge cells for 5 min at 300 g; • d. Empty tubes by inversion; • e. Add the antibodies for extracellular staining; • f. Incubate 20 min at 4° C.; • g. Wash cells with 1 mL of PBS+2% FBS; • h. Centrifuge cells for 5 min at 300 g; • i. […]
Background: In flow cytometry, cells or beads pass a laser one at a time.

Take `CCOC(=O)c1cc2cc(C(F)(F)P(=O)(O)O)c(Br)cc2s1` [Ex. 1, ((6-BROMO-2-(ETHOXYCARBONYL)BENZO[B]THIOPHEN-5-YL)DIFLUOROMETHYL)PHOSPHONATE]: the “expression of exhaustion markers PD-1, CTLA-4, KLRG1” value is “displayed less exhaustion markers PD-1, CDTLA4 and KLRG1”; the “expression of the receptor LAG-3” value is given as “increased expression of the receptor LAG-3”; the “levels of Granzyme B and IFN-gamma” value is “higher levels of Granzyme B and IFN-gamma”.
